# Measurements reported in PubChem BioAssay (NCI).
#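 Cultured in 96-well plates, cells were exposed to test compound for 48 hours across five concentrations. Abbreviation: GI50, concentration required for 50% inhibition of growth. TGI is the concentration that stops growth completely.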
# Tests used:
# Experiment in all cases: NCI tumour cell line growth inhibition, 48 h
# [1] = tested on: SR leukemia
# [2] = tested on: NCI-H460 lung
# [3] = tested on: SK-MEL-5 melanoma
# [4] = tested on: DU-145 prostate
# [5] = tested on: MDA-MB-231 breast
# [6] = tested on: SNB-19 CNS
# [7] = tested on: RPMI-8226 leukemia
# [8] = tested on: HCT-15 colon
# [9] = tested on: MDA-MB-435
# [10] = tested on: COLO 205 colon
smiles,measurement,setting,value
Nc1nc(N)c2c(ccc3nccc32)[nH]1,GI50,[1],1.29 µM
same,GI50,[2],0.439 µM
same,TGI,[2],14.5 µM
same,GI50,[3],2.28 µM
same,TGI,[3],> 33.9 µM
same,GI50,[4],8.61 µM
same,TGI,[4],57.4 µM
same,GI50,[5],13.5 µM
same,TGI,[5],50 µM
same,GI50,[6],7.98 µM
same,TGI,[6],> 100 µM
same,GI50,[7],3.73 µM
same,TGI,[7],21.7 µM
same,GI50,[8],2.35 µM
same,TGI,[8],> 100 µM
same,GI50,[9],0.688 µM
same,TGI,[9],35.4 µM
same,GI50,[10],8.03 µM
same,TGI,[10],50.9 µM
